# Assay results from patent US11149066B2, “Thrombospondin 1-binding peptide” (DAIICHI SANKYO COMPANY, LIMITED, priority 2016, dated 2021).
# Positions of bridges follow the written chain, without caps; N, C: chain ends. Non-standard residues stand in square brackets, D forms with d. Residues, ends and D or L forms follow the SMILES beside them. Trp(6-Cl) = N[C@@H](Cc1c[nH]c2cc(Cl)ccc12)C(=O)O; Phe(3,4-Cl2) = N[C@@H](Cc1ccc(Cl)c(Cl)c1)C(=O)O; 2Nal = N[C@@H](Cc1ccc2ccccc2c1)C(=O)O; Met(O2) = CS(=O)(=O)CC[C@H](N)C(=O)O; His(π-Me) = Cn1cncc1C[C@H](N)C(=O)O; hPhe = N[C@@H](CCc1ccccc1)C(=O)O; Phg = N[C@H](C(=O)O)c1ccccc1; Nle = CCCC[C@H](N)C(=O)O
# Target: human TSP1 (Homo sapiens, UniProt P07996)
# Assay: Cell adhesion inhibition assay (HUVEC adhesion to TSP1-coated plate)
# Format: cell-based
# Conditions: HUVEC adhesion to TSP1-coated plate; read-out: cell adhesion inhibition (Table 4)
# Protocol: As referred to herein, the TSP1 inhibitory activity refers to the activity to inhibit one or more effects of TSP1, including angiostatic effect. The TSP1 inhibitory activity is measured by a cell adhesion inhibition assay using human TSP1 and vascular endothelial cells as described hereinbelow in the Examples section. In this assay, when the 50% inhibitory concentration (IC5O) of a test substance is 200 nM or less, the test substance is determined to have TSP1 inhibitory activity.
# (Test Example 1) Cell Adhesion Inhibition Assay
# I. Materials and Reagents
# 96 well Non-treated White with clear bottom (Coster, 3632)
# BrightMax adhesive sealing films (EXCEL Scientific, WT50)
# Proteosave®SS 15 mL (Sumitomo Bakelite, MS-52150)
# Thrombospondin human platelet (Calbiochem, 605225)
# EGM-2 MV (Lonza, CC-3202): for HUVEC passaging
# Collagen coated dish (IWAKI, 4020-010): for HUVEC passaging
# Lipidure®-BL802 (NOF Corporation), 5% solution
# Albumin solution (35%) fraction V from Bovine (Sigma, A7979)
# CellTiter-Glo (Promega, G7572)
# Thrombospondin 1 vial (25 μg) was dissolved in TBS (+2 mM CaCl2; the same shall apply hereunder) to make a 200 μg/mL solution, which was diluted with TBS to a concentration of 10 μg/mL in Proteosave® 15 mL tube. The 10 μg/mL solution was dispensed into a 96 well plate at a volume of 50 μL/well (no reservoir was used since the protein easily adsorbs on it), and the plate was left to stand at 4° C. overnight.
# Lipidure® was diluted 10-fold with TBS to make a 0.5% solution. After a buffer was discarded from the plate that had been coated at the step of <Plate coat> as described above, the 0.5% solution was dispensed into all wells to be used at a volume of 100 μL/well, and the plate was left to stand at room temperature for 1 hour.
# A 0.2 μM solution of each sample was prepared using a dilution buffer (DMEM+0.5% BSA). 2 μL of the 0.2 μM solution was diluted with 500 μL, of dilution buffer to prepare a diluted sample. As a vehicle control, DMSO was diluted in the same way as the samples.
# A blocking solution was discarded from the plate that had been treated at the step of <Plate blocking> as described above, and the plate was washed three times with 150 μL/well of TBS. The washing solution used for the third washing was completely sucked out by an aspirator, and the diluted sample was dispensed into the plate at a volume of 50 μL/well. Then, the plate was left to stand at room temperature for 15 to 30 minutes.
# To maintain HUVECs, EGM2-MV and a collagen coated dish were used (the cells were ceased to be used after 10th or 1 lth passage since the cell proliferation rate declined at this stage). The cells were dispersed with 0.05% Trypsin/EDTA, harvested in DMEM/0.5% BSA, and centrifuged at 1000 rpm for 3 minutes. After removal of supernatant, the cells were washed once with a DMEM buffer. The cells were resuspended in a DMEM buffer, counted for cell number, and diluted to 10000 cells/50 μL. The cell suspension was dispensed at a volume of 50 μL/well into the plate into which the sample had been dispensed, mixed gently, and incubated at 37° C. for 2.5 hours.
# After cell adhesion was confirmed, the culture medium was completely removed by an aspirator, and 100 μL/well of DMEM/0.5% BSA was gently dispensed. Then, DMEM/0.5% BSA was completely removed by an aspirator, and 50 μL/well of DMEM/0.5% BSA was dispensed. After a white seal was applied to the bottom of the plate, 50 μL/well of CellTiter-Glo® was dispensed, and the solution was stirred for 2 minutes and left to stand at room temperature for 8 minutes. […] was detected using EnVision Xcite Multilabel Reader (produced by Perkin Elmer).
# On the basis of the measured fluorescence values, the IC50 values (nM) of the different macrocyclic polypeptides for inhibition of cell adhesion were calculated.
# Sequence of human TSP1 (P07996 19-1170 limits assumed): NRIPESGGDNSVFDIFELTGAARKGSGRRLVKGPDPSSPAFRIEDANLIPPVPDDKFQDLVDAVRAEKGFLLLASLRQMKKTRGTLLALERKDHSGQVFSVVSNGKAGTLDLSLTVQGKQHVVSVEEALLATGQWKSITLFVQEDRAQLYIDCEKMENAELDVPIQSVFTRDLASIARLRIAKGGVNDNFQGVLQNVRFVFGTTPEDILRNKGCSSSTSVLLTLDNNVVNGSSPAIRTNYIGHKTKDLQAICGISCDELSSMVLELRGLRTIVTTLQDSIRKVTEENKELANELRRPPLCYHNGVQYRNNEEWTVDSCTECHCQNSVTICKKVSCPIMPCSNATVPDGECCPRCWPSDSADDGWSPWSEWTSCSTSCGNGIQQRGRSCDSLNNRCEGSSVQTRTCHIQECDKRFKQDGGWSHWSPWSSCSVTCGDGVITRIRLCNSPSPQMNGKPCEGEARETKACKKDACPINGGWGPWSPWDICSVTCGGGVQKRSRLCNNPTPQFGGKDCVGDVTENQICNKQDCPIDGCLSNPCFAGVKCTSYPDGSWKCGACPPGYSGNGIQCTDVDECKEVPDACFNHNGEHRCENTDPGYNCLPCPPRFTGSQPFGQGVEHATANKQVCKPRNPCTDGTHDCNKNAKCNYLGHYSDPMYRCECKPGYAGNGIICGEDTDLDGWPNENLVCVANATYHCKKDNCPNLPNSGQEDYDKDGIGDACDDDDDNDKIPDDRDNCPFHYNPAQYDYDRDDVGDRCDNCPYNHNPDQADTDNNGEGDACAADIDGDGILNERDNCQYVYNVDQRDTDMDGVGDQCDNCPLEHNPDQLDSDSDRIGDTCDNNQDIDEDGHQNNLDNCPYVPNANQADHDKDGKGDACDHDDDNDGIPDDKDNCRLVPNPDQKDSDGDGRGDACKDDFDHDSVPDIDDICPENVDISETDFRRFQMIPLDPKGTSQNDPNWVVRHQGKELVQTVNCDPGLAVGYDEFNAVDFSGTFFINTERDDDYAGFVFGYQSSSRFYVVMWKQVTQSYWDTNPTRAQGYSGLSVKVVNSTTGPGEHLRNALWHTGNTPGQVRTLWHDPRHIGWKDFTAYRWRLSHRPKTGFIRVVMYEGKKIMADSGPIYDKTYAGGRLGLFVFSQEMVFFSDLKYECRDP
row,SMILES,IC50 [nM]
1,CCCC[C@@H]1NC(=O)[C@H](Cc2c[nH]c3ccccc23)NC(=O)[C@H](CC(N)=O)NC(=O)[C@H](Cc2c[nH]cn2)NC(=O)CNC(=O)[C@H](CO)NC(=O)[C@H](CCCNC(=N)N)NC(=O)[C@H](Cc2ccc3ccccc3c2)NC(=O)CSC[C@@H](C(N)=O)NC(=O)[C@H](C(C)C)NC(=O)[C@H](Cc2c[nH]c3ccccc23)NC(=O)[C@H](C(C)C)NC1=O [Compound 100] ({CH2CO}-[2Nal]RSGHNW[Nle]VWVC-NH2; thioether N-12),19.5
2,CCCC[C@@H]1NC(=O)[C@H](Cc2c[nH]c3ccccc23)NC(=O)[C@H](CC(=O)O)NC(=O)[C@H](CCCCN)NC(=O)CNC(=O)[C@H](CO)NC(=O)[C@H]([C@@H](C)CC)NC(=O)[C@H](Cc2ccc3ccccc3c2)NC(=O)[C@H](CO)NC(=O)CSC[C@@H](C(N)=O)NC(=O)[C@H](C(C)C)NC(=O)[C@H](Cc2c[nH]c3ccccc23)NC(=O)[C@H](CCCNC(=N)N)NC1=O [Compound 92] ({CH2CO}-S[2Nal]ISGKDW[Nle]RWVC-NH2; thioether N-13),15.5
3,CCCC[C@@H]1NC(=O)[C@H](Cc2c[nH]c3ccccc23)NC(=O)[C@H](CC(=O)O)NC(=O)[C@H](CCCNC(=N)N)NC(=O)CNC(=O)[C@H](CO)NC(=O)[C@H]([C@@H](C)CC)NC(=O)[C@H](Cc2ccc3ccccc3c2)NC(=O)[C@H](Cc2c[nH]cn2)NC(=O)CSC[C@@H](C(N)=O)NC(=O)[C@H](C(C)C)NC(=O)[C@H](Cc2c[nH]c3ccccc23)NC(=O)[C@H](CCCCN)NC1=O [Compound 91] ({CH2CO}-H[2Nal]ISGRDW[Nle]KWVC-NH2; thioether N-13),17.1
4,CC(C)[C@@H]1NC(=O)[C@H](Cc2c[nH]c3ccccc23)NC(=O)[C@H](C(C)C)NC(=O)[C@H](C(C)C)NC(=O)[C@H](Cc2c[nH]c3ccccc23)NC(=O)[C@H](CC(=O)O)NC(=O)[C@H](CCCCN)NC(=O)CNC(=O)[C@H](CO)NC(=O)[C@H](CCCNC(=N)N)NC(=O)[C@H](Cc2ccc3ccccc3c2)NC(=O)CSC[C@@H](C(N)=O)NC1=O [Compound 99] ({CH2CO}-[2Nal]RSGKDWVVWVC-NH2; thioether N-12),14.2

# Same assay, conditions: HUVEC adhesion to human platelet thrombospondin-coated plate, 2.5 hours, CellTiter-Glo; read-out: Cell adhesion IC50
row,SMILES,IC50 [nM]
1,CC[C@H](C)[C@@H]1NC(=O)[C@H](Cc2c[nH]c3ccccc23)NC(=O)CSC[C@@H](C(N)=O)NC(=O)[C@H](C(C)C)NC(=O)[C@H](Cc2c[nH]c3ccccc23)NC(=O)[C@H](CCCCN)NC(=O)[C@H](C(C)C)NC(=O)[C@H](Cc2c[nH]c3ccccc23)NC(=O)[C@H]([C@@H](C)O)NC(=O)[C@H](CCCNC(=N)N)NC(=O)CNC(=O)[C@H](CO)NC1=O [Compound 23] ({CH2CO}-WISGRTWVKWVC-NH2; thioether N-12),15.6
2,"CC(C)[C@@H]1NC(=O)[C@H](Cc2c[nH]c3ccccc23)NC(=O)[C@H](CCCCN)NC(=O)[C@H](C(C)C)NC(=O)[C@H](Cc2c[nH]c3ccccc23)NC(=O)[C@H](CC(N)=O)NC(=O)[C@H](CCCNC(=N)N)NC(=O)CNC(=O)[C@H](CO)NC(=O)[C@H](Cc2ccc3ccccc3c2)NC(=O)[C@H](Cc2ccc(Cl)c(Cl)c2)NC(=O)CSC[C@@H](C(N)=O)NC1=O [Compound 34] ({CH2CO}-[Phe(3,4-Cl2)][2Nal]SGRNWVKWVC-NH2; thioether N-12)",28.1
3,CC[C@H](C)[C@@H]1NC(=O)[C@H](Cc2ccc3ccccc3c2)NC(=O)CSC[C@@H](C(N)=O)NC(=O)[C@H](C(C)C)NC(=O)[C@H](Cc2c[nH]c3cc(Cl)ccc23)NC(=O)[C@H](CCCCN)NC(=O)[C@H](C(C)C)NC(=O)[C@H](Cc2c[nH]c3ccccc23)NC(=O)[C@H](CC(N)=O)NC(=O)[C@H](CCCNC(=N)N)NC(=O)CNC(=O)[C@H](CO)NC1=O [Compound 36] ({CH2CO}-[2Nal]ISGRNWVK[Trp(6-Cl)]VC-NH2; thioether N-12),17.2
4,CC[C@H](C)[C@@H]1NC(=O)[C@H](Cc2ccccc2)NC(=O)CSC[C@@H](C(N)=O)NC(=O)[C@H](C(C)C)NC(=O)[C@H](Cc2c[nH]c3ccccc23)NC(=O)[C@H](Cc2cncn2C)NC(=O)[C@H](C(C)C)NC(=O)[C@H](Cc2c[nH]c3ccccc23)NC(=O)[C@H](CC(N)=O)NC(=O)[C@H](CCCNC(=N)N)NC(=O)CNC(=O)[C@H](CO)NC1=O [Compound 46] ({CH2CO}-FISGRNWV[His(π-Me)]WVC-NH2; thioether N-12),30.3
5,CCCC[C@@H]1NC(=O)[C@H](Cc2c[nH]c3ccccc23)NC(=O)[C@H](CC(=O)O)NC(=O)[C@H](CCS(C)(=O)=O)NC(=O)CNC(=O)[C@H](CO)NC(=O)[C@H]([C@@H](C)CC)NC(=O)[C@H](Cc2ccc3ccccc3c2)NC(=O)CSC[C@@H](C(N)=O)NC(=O)[C@H](C(C)C)NC(=O)[C@H](Cc2c[nH]c3ccccc23)NC(=O)[C@H](CCCCN)NC1=O [Compound 71] ({CH2CO}-[2Nal]ISG[Met(O2)]DW[Nle]KWVC-NH2; thioether N-12),17.1
6,CCCC[C@@H]1NC(=O)[C@H](Cc2c[nH]c3ccccc23)NC(=O)[C@H](CC(N)=O)NC(=O)[C@H](CCCNC(=N)N)NC(=O)CNC(=O)[C@H](CO)NC(=O)[C@H]([C@@H](C)CC)NC(=O)[C@H](Cc2ccc3ccccc3c2)NC(=O)CSC[C@@H](C(N)=O)NC(=O)[C@H](C(C)C)NC(=O)[C@H](Cc2c[nH]c3ccccc23)NC(=O)[C@H](CCCCN)NC1=O [Compound 38] ({CH2CO}-[2Nal]ISGRNW[Nle]KWVC-NH2; thioether N-12),9.2
7,CC(C)[C@@H]1NC(=O)[C@H](Cc2c[nH]c3ccccc23)NC(=O)[C@H](CCCCN)NC(=O)[C@H](C(C)C)NC(=O)[C@H](Cc2c[nH]c3ccccc23)NC(=O)[C@H](CC(N)=O)NC(=O)[C@H](CCCNC(=N)N)NC(=O)CNC(=O)[C@H](CO)NC(=O)[C@H](c2ccccc2)NC(=O)[C@H](Cc2ccc3ccccc3c2)NC(=O)CSC[C@@H](C(N)=O)NC1=O [Compound 49] ({CH2CO}-[2Nal][Phg]SGRNWVKWVC-NH2; thioether N-12),11.5
8,CC[C@H](C)[C@@H]1NC(=O)[C@H](Cc2c[nH]c3ccccc23)NC(=O)CSC[C@@H](C(N)=O)NC(=O)[C@H](C(C)C)NC(=O)[C@H](Cc2c[nH]c3ccccc23)NC(=O)[C@H](CCCCN)NC(=O)[C@H](C(C)C)NC(=O)[C@H](Cc2c[nH]c3ccccc23)NC(=O)[C@H](CC(N)=O)NC(=O)[C@H](CCCNC(=N)N)NC(=O)CNC(=O)[C@H](CO)NC1=O [Compound 9] ({CH2CO}-WISGRNWVKWVC-NH2; thioether N-12),27.3
9,CCCC[C@@H]1NC(=O)[C@H](Cc2c[nH]c3ccccc23)NC(=O)[C@H](CC(=O)O)NC(=O)[C@@H]2CCCN2C(=O)CNC(=O)[C@H](CO)NC(=O)[C@H]([C@@H](C)CC)NC(=O)[C@H](Cc2ccc3ccccc3c2)NC(=O)CSC[C@@H](C(N)=O)NC(=O)[C@H](C(C)C)NC(=O)[C@H](Cc2c[nH]c3ccccc23)NC(=O)[C@H](CCCCN)NC1=O [Compound 68] ({CH2CO}-[2Nal]ISGPDW[Nle]KWVC-NH2; thioether N-12),28.1
10,CCCC[C@@H]1NC(=O)[C@H](Cc2c[nH]c3ccccc23)NC(=O)[C@H](CC(=O)O)NC(=O)[C@H](CCCCN)NC(=O)CNC(=O)[C@H](CO)NC(=O)[C@H]([C@@H](C)CC)NC(=O)[C@H](Cc2ccc3ccccc3c2)NC(=O)CSC[C@@H](C(N)=O)NC(=O)[C@H](C(C)C)NC(=O)[C@H](Cc2c[nH]c3ccccc23)NC(=O)[C@H](CCCCN)NC1=O [Compound 57] ({CH2CO}-[2Nal]ISGKDW[Nle]KWVC-NH2; thioether N-12),15.6
11,CC[C@H](C)[C@@H]1NC(=O)[C@H](Cc2ccc3ccccc3c2)NC(=O)CSC[C@@H](C(N)=O)NC(=O)[C@H](CCc2ccccc2)NC(=O)[C@H](Cc2c[nH]c3ccccc23)NC(=O)[C@H](CCCCN)NC(=O)[C@H](C(C)C)NC(=O)[C@H](Cc2c[nH]c3ccccc23)NC(=O)[C@H](CC(N)=O)NC(=O)[C@H](CCCNC(=N)N)NC(=O)CNC(=O)[C@H](CO)NC1=O [Compound 37] ({CH2CO}-[2Nal]ISGRNWVKW[hPhe]C-NH2; thioether N-12),19.6
